Source: BindingDB's records for PubMed 11082457 (Centre De Recherches De Croissy, 2000)

What was measured:
[1] = biological target: Sodium-dependent noradrenaline transporter (Homo sapiens, UniProt P23975)
[2] = biological target: T1, Alpha-1A adrenergic receptor (Homo sapiens, UniProt P35348)
T1 sequence (P35348 whole entry): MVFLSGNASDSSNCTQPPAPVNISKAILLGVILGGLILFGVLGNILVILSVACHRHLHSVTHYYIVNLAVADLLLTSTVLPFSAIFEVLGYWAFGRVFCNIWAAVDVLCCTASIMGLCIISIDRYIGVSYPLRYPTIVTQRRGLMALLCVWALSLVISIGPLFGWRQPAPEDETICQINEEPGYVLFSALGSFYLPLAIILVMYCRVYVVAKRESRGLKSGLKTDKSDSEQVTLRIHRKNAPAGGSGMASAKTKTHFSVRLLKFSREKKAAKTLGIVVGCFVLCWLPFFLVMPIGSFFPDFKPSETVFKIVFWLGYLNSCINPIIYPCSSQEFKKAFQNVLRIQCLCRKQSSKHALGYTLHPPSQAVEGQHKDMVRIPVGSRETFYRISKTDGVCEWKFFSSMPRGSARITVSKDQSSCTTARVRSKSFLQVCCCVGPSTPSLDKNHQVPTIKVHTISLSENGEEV

[3] = biological target: T2, Alpha-2C adrenergic receptor (Rattus norvegicus, UniProt P22086)
T2 sequence (P22086 whole entry): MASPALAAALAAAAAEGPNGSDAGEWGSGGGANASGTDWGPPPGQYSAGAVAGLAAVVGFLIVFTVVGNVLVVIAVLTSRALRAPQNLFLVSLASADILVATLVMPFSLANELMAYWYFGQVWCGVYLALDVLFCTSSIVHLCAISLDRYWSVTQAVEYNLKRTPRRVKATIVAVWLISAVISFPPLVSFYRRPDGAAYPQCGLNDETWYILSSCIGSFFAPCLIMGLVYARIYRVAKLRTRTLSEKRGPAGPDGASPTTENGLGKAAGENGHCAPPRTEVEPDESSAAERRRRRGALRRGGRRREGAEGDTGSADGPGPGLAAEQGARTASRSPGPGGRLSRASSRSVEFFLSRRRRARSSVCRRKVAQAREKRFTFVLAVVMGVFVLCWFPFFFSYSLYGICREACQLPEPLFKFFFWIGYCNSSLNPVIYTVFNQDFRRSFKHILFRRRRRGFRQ

[4] = biological target: T3, Alpha-1D adrenergic receptor (Homo sapiens, UniProt P25100)
T3 sequence (P25100 whole entry): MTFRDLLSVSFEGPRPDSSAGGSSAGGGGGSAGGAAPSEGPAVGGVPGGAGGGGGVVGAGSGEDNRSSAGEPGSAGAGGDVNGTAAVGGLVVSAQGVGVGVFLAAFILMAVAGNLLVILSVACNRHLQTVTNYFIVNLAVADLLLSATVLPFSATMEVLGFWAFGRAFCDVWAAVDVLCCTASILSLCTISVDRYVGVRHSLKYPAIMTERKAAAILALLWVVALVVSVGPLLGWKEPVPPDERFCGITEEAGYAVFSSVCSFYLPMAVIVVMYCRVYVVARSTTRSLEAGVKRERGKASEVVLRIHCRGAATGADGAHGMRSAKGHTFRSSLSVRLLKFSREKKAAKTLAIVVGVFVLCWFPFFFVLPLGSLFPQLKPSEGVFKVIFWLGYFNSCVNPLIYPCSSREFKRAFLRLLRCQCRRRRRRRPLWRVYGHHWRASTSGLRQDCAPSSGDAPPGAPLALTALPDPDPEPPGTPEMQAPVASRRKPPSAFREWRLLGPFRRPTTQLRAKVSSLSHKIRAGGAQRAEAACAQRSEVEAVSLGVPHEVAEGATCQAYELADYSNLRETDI

[5] = biological target: T4, Amine oxidase [flavin-containing] A (Rattus norvegicus, UniProt P21396)
T4 sequence (P21396 whole entry): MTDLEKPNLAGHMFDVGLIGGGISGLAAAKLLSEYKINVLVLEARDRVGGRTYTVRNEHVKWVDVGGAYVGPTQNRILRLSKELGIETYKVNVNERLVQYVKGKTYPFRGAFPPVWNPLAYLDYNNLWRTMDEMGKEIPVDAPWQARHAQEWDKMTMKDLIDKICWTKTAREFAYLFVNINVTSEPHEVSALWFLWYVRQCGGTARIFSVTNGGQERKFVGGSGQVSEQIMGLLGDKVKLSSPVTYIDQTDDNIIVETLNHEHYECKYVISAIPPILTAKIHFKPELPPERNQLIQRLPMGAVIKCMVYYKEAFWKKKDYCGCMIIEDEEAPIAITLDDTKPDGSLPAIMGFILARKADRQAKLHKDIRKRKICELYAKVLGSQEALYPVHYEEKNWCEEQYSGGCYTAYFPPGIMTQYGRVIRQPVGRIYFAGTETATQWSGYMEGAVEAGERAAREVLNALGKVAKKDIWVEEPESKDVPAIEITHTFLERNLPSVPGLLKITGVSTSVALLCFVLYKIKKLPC

[6] = biological target: T5, Alpha-1B adrenergic receptor (Homo sapiens, UniProt P35368)
T5 sequence (P35368 whole entry): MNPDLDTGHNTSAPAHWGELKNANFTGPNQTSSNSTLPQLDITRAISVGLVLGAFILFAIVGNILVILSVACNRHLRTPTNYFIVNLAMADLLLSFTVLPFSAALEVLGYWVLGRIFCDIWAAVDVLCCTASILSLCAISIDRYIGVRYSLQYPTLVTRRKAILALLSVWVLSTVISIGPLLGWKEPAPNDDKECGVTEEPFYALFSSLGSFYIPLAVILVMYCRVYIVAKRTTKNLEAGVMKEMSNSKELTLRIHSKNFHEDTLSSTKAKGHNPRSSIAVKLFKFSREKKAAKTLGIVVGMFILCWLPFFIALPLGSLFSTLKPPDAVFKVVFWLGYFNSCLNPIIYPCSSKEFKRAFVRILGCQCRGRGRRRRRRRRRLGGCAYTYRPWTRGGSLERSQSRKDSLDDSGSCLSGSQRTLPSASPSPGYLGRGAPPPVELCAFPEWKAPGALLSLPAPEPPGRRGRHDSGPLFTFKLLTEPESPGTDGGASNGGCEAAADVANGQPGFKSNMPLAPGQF

Sodium-dependent noradrenaline transporter, sequence (P23975 whole entry): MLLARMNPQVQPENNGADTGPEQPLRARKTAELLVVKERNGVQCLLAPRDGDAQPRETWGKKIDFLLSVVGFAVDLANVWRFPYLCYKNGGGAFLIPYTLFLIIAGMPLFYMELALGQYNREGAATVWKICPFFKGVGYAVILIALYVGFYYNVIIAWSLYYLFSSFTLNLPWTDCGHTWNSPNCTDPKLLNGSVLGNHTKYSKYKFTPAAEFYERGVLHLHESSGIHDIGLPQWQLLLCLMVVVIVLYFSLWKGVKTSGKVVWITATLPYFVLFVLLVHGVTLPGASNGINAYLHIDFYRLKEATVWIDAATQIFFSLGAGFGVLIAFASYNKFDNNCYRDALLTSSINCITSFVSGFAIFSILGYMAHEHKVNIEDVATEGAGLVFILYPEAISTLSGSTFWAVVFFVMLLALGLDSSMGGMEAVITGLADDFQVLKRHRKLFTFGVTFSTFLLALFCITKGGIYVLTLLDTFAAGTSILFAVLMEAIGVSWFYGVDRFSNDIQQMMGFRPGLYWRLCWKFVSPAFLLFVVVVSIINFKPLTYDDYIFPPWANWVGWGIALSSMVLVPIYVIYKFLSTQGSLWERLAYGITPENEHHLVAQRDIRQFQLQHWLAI

## Cc1cccc([C@@H](C)c2cnc[nH]2)c1C
[1]
  Ki: 1000 nM
[2]
  Ki: 200 nM
[3]
  Ki: 1 nM
[4]
  Ki: 79.4 nM
[5]
  Ki: 1000 nM
[6]
  Ki: 316 nM

## NC1=NC2(CCc3ccccc3C2)CO1 (configuration not stated) [S18616]
[1]
  Ki: 1000 nM
[2]
  Ki: 3.98 nM
[3]
  Ki: 0.159 nM
[4]
  Ki: 25.1 nM
[5]
  Ki: 1000 nM
[6]
  Ki: 20 nM
